Active and inactive are the calls of the source. The rule behind the calls is not given here.
How the values were obtained:
[1] = molecular target: T1, D(1A) dopamine receptor (Homo sapiens, UniProt P21728); test: Displacement of [3H]SCH23390 from dopamine D1 receptor (unknown origin)
[2] = molecular target: T2, D(2) dopamine receptor (Homo sapiens, UniProt P14416); test: Displacement of [3H]N-methylspiperone from dopamine D2 receptor (unknown origin)
[3] = molecular target: D(1B) dopamine receptor (Homo sapiens, UniProt P21918); test: Displacement of [3H]SCH23390 from dopamine D5 receptor (unknown origin)
[4] = molecular target: T2, D(2) dopamine receptor; test: Displacement of [3H]N-methylspiperone from dopamine D2 receptor (unknown origin) at 10 uM relative to control
[5] = species on record: Homo sapiens; test: Selectivity index, ratio of Ki for displacement of [3H]SCH23390 from dopamine D5 receptor (unknown origin) to Ki for displacement of [3H]SCH23390 from dopamine D1 receptor (unknown origin)
[6] = molecular target: T1, D(1A) dopamine receptor; test: Antagonist activity at human dopamine D1 receptor expressed in CHO-K1 cells by cAMP Hunter assay; type: functional, cell-based
[7] = molecular target: T1, D(1A) dopamine receptor; test: Agonist activity at human dopamine D1 receptor expressed in CHO-K1 cells by cAMP Hunter assay; type: functional, cell-based

T2 sequence (P14416 whole entry): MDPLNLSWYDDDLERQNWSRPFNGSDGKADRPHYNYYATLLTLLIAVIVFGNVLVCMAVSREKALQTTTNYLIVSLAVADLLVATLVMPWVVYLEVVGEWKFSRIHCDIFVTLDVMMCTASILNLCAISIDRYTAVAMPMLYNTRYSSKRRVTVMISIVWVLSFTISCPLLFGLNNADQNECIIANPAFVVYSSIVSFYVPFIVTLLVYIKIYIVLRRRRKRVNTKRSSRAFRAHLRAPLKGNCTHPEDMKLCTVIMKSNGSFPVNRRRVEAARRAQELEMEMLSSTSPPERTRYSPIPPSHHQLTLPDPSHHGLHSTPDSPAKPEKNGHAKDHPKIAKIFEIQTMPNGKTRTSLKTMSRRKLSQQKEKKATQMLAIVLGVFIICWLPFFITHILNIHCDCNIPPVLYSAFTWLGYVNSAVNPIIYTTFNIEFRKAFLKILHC
T1 sequence (P21728 whole entry): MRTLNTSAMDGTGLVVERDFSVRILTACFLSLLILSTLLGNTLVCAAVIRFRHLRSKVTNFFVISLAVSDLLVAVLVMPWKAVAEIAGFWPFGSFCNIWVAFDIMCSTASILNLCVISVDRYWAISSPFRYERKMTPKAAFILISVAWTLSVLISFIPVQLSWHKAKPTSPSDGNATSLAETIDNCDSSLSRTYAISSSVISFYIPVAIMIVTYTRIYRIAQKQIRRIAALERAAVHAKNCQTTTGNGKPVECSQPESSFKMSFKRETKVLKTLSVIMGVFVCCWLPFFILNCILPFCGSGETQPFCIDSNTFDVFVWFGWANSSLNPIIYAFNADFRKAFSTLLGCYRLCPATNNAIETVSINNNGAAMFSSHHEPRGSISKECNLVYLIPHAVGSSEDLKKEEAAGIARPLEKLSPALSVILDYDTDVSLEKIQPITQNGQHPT
Chain of D(1B) dopamine receptor (P21918 whole entry): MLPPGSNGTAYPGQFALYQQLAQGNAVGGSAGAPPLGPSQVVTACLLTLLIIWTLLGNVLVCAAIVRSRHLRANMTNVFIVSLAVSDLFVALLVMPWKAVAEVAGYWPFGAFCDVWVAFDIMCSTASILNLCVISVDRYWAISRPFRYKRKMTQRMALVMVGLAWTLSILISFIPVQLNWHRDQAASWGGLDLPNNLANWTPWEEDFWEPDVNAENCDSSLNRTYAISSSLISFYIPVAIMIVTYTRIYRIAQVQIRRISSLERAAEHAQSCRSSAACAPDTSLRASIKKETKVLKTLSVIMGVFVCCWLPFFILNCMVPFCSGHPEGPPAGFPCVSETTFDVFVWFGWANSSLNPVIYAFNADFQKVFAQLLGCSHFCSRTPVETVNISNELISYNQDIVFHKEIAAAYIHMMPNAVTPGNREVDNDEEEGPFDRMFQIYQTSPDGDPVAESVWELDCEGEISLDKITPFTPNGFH

SMILES	Ki [1]	Ki [2]	Ki [3]	inhibition [4]	Ratio Ki [5]	IC50 [6]	Activity [7]
C=CCN1CCc2cc(OC)c(O)cc2C(c2c(Cl)cccc2Cl)C1 (stereo not drawn)	1040 nM	1510 nM	479 nM	–	–	–	–
COc1cc2c(cc1O)C(c1ccccc1Br)CN(C)CC2 (stereo not drawn)	16 nM	–	47 nM	< 50%	4	–	–
COc1cc2c(cc1O)C(c1ccccc1Cl)CNCC2 (stereo not drawn)	147 nM	–	483 nM	< 50%	< 3	–	–
COc1cc2c(cc1O)C(c1ccccc1Br)CNCC2 (stereo not drawn)	72 nM	–	82 nM	< 50%	< 3	–	–
COc1cc2c(cc1O)C(c1c(Cl)cccc1Cl)CN(C)CC2 (stereo not drawn)	145 nM	–	49.1 nM	< 50%	–	–	–
C=CCN1CCc2cc(OC)c(O)cc2C(c2ccccc2Br)C1 (stereo not drawn)	41 nM	–	501 nM	< 50%	–	–	–
Oc1cc2c(cc1O)C(c1ccccc1Br)CNCC2 (stereo not drawn)	26 nM	–	67 nM	< 50%	–	–	–
C=CCN1CCc2cc(O)c(O)cc2C(c2ccccc2Br)C1 (stereo not drawn)	133 nM	–	442 nM	< 50%	3 to 4	–	–
C=CCN1CCc2cc(OC)c(O)cc2C(c2ccccc2Cl)C1 (stereo not drawn)	48.3 nM	–	264 nM	< 50%	–	–	–
COc1cc2c(cc1O)C(c1ccccc1)CNCC2 (stereo not drawn)	126 nM	–	310 nM	< 50%	< 3	–	–
COc1cc2c(cc1O)C(c1c(Cl)cccc1Cl)CNCC2 (stereo not drawn)	76.1 nM	–	25.4 nM	< 50%	–	–	–
COc1cc2c(cc1O)C(c1ccccc1Cl)CN(C)CC2 (stereo not drawn)	14 nM	–	46.4 nM	< 50%	3	9.4 nM	inactive
CN1CCc2cc(O)c(O)cc2C(c2ccccc2Br)C1 (stereo not drawn)	59.4 nM	–	223 nM	< 50%	3 to 4	–	–

— ChEMBL document CHEMBL4622940, “Synthesis and dopamine receptor pharmacological evaluations on ring C ortho halogenated 1-phenylbenzazepines” (Bioorg Med Chem Lett, 2020)
